Literature values in US20030198685A1 (priority 2002, published 2003).
Read-outs that look alike come from different tables or passages of the source.

What was measured:
[1] = 300 mg/wk for six weeks
[2] = pharmacological doses, HIV-infected men
[3] = female rats, constant infusion
[4] = Caucasian group of hypogonadal men
[5] = nandrolone use
[6] = patients on dialysis
[7] = system: prostate and seminal vesicle weights; levator ani muscles
[8] = system: androgen receptor; settings: seminal vesicle; parent versus 5-alpha-reduced metabolite
[9] = not given; remark: listed apart in the source
[10] = not given; remark: listed apart in the source
[11] = after supplementation

Which results are given for CCCCCCCCCC(=O)O[C@H]1CC[C@H]2[C@@H]3CCC4=CC(=O)CC[C@@H]4[C@H]3CC[C@]12C [nandrolone decanoate, 19-nor-testosterone decanoate]?
body circumferences with significant increases (of fifteen) [1]: shoulders and chest; total weight, lean body mass, body cell mass, muscle size and strength [2]: significant gains

For C[C@]12CC[C@H]3[C@@H](CC=C4C[C@@H](O)CC[C@@]43C)[C@@H]1CC[C@@H]2O [5-androstenediol], which “proportion of protein in the body composition” value [3] is on record?
The value was “increased”.

Which results are given for CCCCCCC(=O)O[C@H]1CC[C@H]2[C@@H]3CCC4=CC(=O)CC[C@]4(C)[C@H]3CC[C@]12C [TE, testosterone enanthate]?
body circumferences with significant increases (of fifteen) [1]: shoulders; sexual interest and activity, spontaneous erection [4]: significant increases

With C[C@]12CC[C@H]3[C@@H](CCC4=CC(=O)CC[C@@H]43)[C@@H]1CC[C@@H]2O [nandrolone, 19-nor-testosterone] as the molecule, how does the “decrease in HDL-cholesterol” value (body builders) read?
Its value is 25-27%.

What about the lean body mass (body builders ingesting nandrolone) of the same molecule?
The lean body mass was “Superior increases”.

What about the effect on sperm [5] of the same molecule?
Its effect on sperm is “azoospermia”.

What about the “lean body mass compared with placebo” value [6] of the same molecule?
Its value is “increased significantly”.

And the energy expenditure [3]?
Its energy expenditure is “increased”.

Which “sexual interest and activity, spontaneous erection” value [4] does the source give for C[C@@H]1CC2=CC(=O)CC[C@@H]2[C@H]2CC[C@]3(C)[C@@H](O)CC[C@H]3[C@@H]21 [MENT, 7α-methyl-19-nor-testosterone] here?
The value was “significant increases”.

What about the “androgenic potency relative to testosterone” value ([7]; measured by prostate and seminal vesicle weights) of the same molecule?
The value was “four- to five-times”.

What about the “anabolic potency relative to testosterone” value ([7]; measured in the levator ani muscles) of the same molecule?
The value was “ten-times”.

Which “change of affinity to the androgen receptor on 5-alpha-reduction” value [8] does the source give for C[C@]12CC[C@H]3[C@@H](CCC4=CC(=O)CC[C@@]43C)[C@@H]1CC[C@@H]2O [testosterone] here?
The value was “increasing by seven- to eight-fold”.

And the “proportion of protein in the body composition” value [3]?
The value was “increased”.

With C[C@]12CC[C@H](O)CC1=CC[C@@H]1[C@@H]2CC[C@]2(C)C(=O)CC[C@@H]12 [DHEA, dehydro-epiandrosterone] as the molecule, how does the plasma testosterone ([9]; 50 mg dose of DHEA) read?
Its plasma testosterone is “levels similar to those observed in young women”.

And the “increase of plasma delta 4-androstenedione” value ([9]; 50 mg or 200 mg DHEA)?
The value was “significant and dose dependent”.

What about the “plasma estrogens, particularly estradiol” value ([9]; 50 mg or 200 mg DHEA) of the same molecule?
Its value is “significant and dose dependent increase”.

And the plasma testosterone ([9]; 200 mg dose of DHEA)?
Its plasma testosterone is “slightly below the levels observed in normal men”.

What about the “increase of plasma dihydrotestosterone levels” value ([9]; both doses of DHEA) of the same molecule?
Its value is “small”.

Which serum testosterone ([10]; supplementation) does the source give for C[C@]12CCC(=O)C=C1CC[C@@H]1[C@@H]2CC[C@]2(C)C(=O)CC[C@@H]12 [4-androstenedione] here?
Its serum testosterone is “elevations”.

For C[C@]12CC[C@H]3[C@@H](CCC4=C[C@@H](O)CC[C@@]43C)[C@@H]1CC[C@@H]2O [4-androstenediol], which “human serum testosterone levels” value ([10]; human) is on record?
The value was “elevations”.

And the “urine testosterone concentration relative to 4-androstenedione” value [11]?
Its value is 10 fold.
